Data set [1] is described as follows: Metabolic stability in human liver microsomes assessed as compound metabolized after 15 mins. It counts as ADME, Microsome. Particulars: read-out: Drug metabolism; call rule not given here. For orientation: Liver microsomes are a subcellular fraction often used to study metabolism.
Data set [2] is described as follows: Cytotoxicity against human HeLa cells assessed as reduction in cell viability after 3 days by ATPlite assay.
Data set [3] can be described thus: Aqueous solubility of the compound. The settings on record: buffer. The format is physicochemical.
Data set [4] in a line: Clearance in Sprague-Dawley rat at 2 mg/kg, iv administered as single dose. Particulars: in vivo. It counts as ADME, organism-based.
The nature of data set [5]: Volume of distribution at steady state in Sprague-Dawley rat at 2 mg/kg, iv administered as single dose. Particulars: in vivo, read-out: Vdss. The format is ADME, organism-based.
Data set [6] can be described thus: AUC in Sprague-Dawley rat at 10 mg/kg, po administered as single dose. Particulars: in vivo. It counts as ADME, organism-based.
Data set [7] is described as follows: Metabolic stability in rat liver microsomes assessed as compound metabolized after 15 mins. The format is ADME, Microsome. Particulars: read-out: Drug metabolism.
Data set [8] can be described thus: Ratio of AUC (0 to last) in lung to plasma of Sprague-Dawley rat at 10 mg/kg, po administered as single dose. It counts as ADME, organism-based. Particulars: lung and plasma, read-out: Ratio AUC.
Data set [9] in a line: Cmax in Sprague-Dawley rat at 10 mg/kg, po administered as single dose. It counts as ADME, organism-based. On the set-up: dose 10 mg/kg, route oral. The settings on record: in vivo.
Data set [10] is described as follows: Absolute oral bioavailability in Sprague-Dawley rat at 10 mg/kg administered as single dose. It counts as ADME, organism-based. The settings on record: in vivo.
Data set [11] in a line: Protein binding in human plasma assessed as unbound fraction. It counts as ADME, cell-free.
Another data set concerns the target CYP3A4 (Homo sapiens, UniProt P08684). In words: Time-dependent inhibition of CYP3A4 in human liver microsomes assessed as ratio of IC50 in presence and absence of NADPH using testosterone as substrate. It counts as ADME. Particulars: probe testosterone, read-out: Ratio IC50.
Data set [12] is described as follows: Ratio of AUC (0 to last) in lung to plasma of Sprague-Dawley rat at 2.5 mg/kg, iv or 10 mg/kg, po. It counts as ADME, organism-based. The settings on record: lung and plasma, read-out: Ratio AUC.
Data set [13] is described as follows: Oral bioavailability in dog at 5 mg/kg. The settings on record: in vivo. The format is ADME, organism-based, Canis lupus familiaris.
Data set [14] in a line: Clearance in dog plasma at 1 mg/kg, iv relative to liver blood flow. The format is ADME, organism-based, Canis lupus familiaris. Particulars: in vivo.
The nature of data set [15]: Oral bioavailability in Sprague-Dawley rat at 10 mg/kg. It counts as ADME, organism-based. The settings on record: in vivo.
Data set [16] can be described thus: Clearance in dog plasma at 1 mg/kg, iv. The format is ADME, organism-based, Canis lupus familiaris.
Data set [17] in a line: Clearance in Sprague-Dawley rat plasma at 2.5 mg/kg, iv. It counts as ADME, organism-based.
The nature of data set [18]: Metabolic stability in dog liver microsomes assessed as compound metabolized after 15 mins. Particulars: read-out: Drug metabolism. The format is ADME, Canis lupus familiaris, Microsome.
In data set [19] the test system is Respiratory syncytial virus. Briefly: Antiviral activity against RSV Long infected in po dosed cotton rat model assessed as reduction in viral titer in broncho alveolar lavage fluid pretreated for 1 hr followed by viral infection measured after 4 days by plaque reduction assay. Particulars: for EC50: human respiratory syncytial virus. The format is functional, organism-based. Background: In a plaque reduction assay, fewer plaques than in the control indicate reduced infectivity or spread.

Data set [20] relates to Respiratory syncytial virus. In words: Antiviral activity against RSV Long infected in po dosed cotton rat model assessed as reduction in viral titer in lung lavage fluid pretreated for 1 hr followed by viral infection measured after 4 days by plaque reduction assay. The format is functional, organism-based. The settings on record: for EC50: human respiratory syncytial virus.

The nature of data set [21]: Clearance in Sprague-Dawley rat at 2 mg/kg, iv administered as single dose relative to liver blood flow. The format is ADME, organism-based. Particulars: in vivo.
The next data set addresses Cytochrome P450 3A4 (Homo sapiens, UniProt P08684). Briefly: Time-dependent inhibition of CYP3A4 in human liver microsomes using testosterone as substrate. It counts as ADME.

The source of these data is ChEMBL document CHEMBL4619758, “Discovery of 3-({5-Chloro-1-[3-(methylsulfonyl)propyl]-1H-indol-2-yl}methyl)-1-(2,2,2-trifluoroethyl)-1,3-dihydro-2H-imidazo[4,5-c]pyridin-2-one (JNJ-53718678), a Potent and Orally Bioavailable Fusion Inhibitor of Respiratory Syncytial Virus” (J Med Chem, 2020).

Molecules are shown by their SMILES. Converted amounts (≈) assume the structure as drawn. A value given as a limit tells only on which side of the number the result lay.

Usually CC50 stands for the concentration giving 50% cytotoxicity. For orientation: clearance means the rate of elimination divided by the concentration. The term AUC denotes concentration integrated over time. A high value points to high exposure. Usually Cmax stands for the maximum level reached in the sampled fluid or tissue. What is called bioavailability is dose-corrected exposure relative to a reference, in per cent. Low values mean poor availability, high ones good availability. In general, fraction unbound refers to the share of the substance not bound to proteins or other matrix. The term EC50 denotes the concentration giving half of the maximal effect.

CYP3A4, sequence (P08684 whole entry): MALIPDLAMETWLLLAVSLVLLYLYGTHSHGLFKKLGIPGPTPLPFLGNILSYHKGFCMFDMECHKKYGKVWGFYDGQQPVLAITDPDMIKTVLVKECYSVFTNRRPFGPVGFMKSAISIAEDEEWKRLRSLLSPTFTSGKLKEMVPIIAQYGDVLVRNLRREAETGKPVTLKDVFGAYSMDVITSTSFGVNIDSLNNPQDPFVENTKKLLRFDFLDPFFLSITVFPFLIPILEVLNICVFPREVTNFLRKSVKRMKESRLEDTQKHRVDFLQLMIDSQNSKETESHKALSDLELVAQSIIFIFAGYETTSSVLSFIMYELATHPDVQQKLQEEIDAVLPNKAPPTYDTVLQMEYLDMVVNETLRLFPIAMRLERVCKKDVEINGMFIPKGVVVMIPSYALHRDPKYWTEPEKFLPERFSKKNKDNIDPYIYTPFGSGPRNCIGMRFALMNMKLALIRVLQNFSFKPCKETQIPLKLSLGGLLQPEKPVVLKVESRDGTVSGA
Cytochrome P450 3A4, sequence (P08684 whole entry): as above

Regarding `CS(=O)(=O)c1ccc(-n2c(=O)n(Cc3cc4cc(Cl)ccc4n3CCCC#N)c3cnccc32)cc1`, the metabolised at 0.25 h in data set [1] amounted to 9%. In addition, the CC50 at 72 h in data set [2] was above 50 µM. In [3], the solubility result was “Insoluble”.
In the case of `N#CCCCn1c(Cn2c(=O)n(C3CC3)c3ccncc32)cc2cc(Cl)ccc21`, the clearance in data set [4] was 36.7 mL/min/kg. Moreover, the Vd in [5] stood at 1.5 L/kg. This compound also yielded an AUC in data set [6] of 3300 ng·h/mL. For the same compound, the metabolised at 0.25 h is 80% in data set [7] and 17% in [1]. Besides, the Kp in data set [8] was determined as 1.6. Also, the CC50 at 72 h in [2] is above 50 µM. The peak level in [9] (Cmax) was 1230 ng/mL. Further, the bioavailability in data set [10] was determined as 73%. Also, the fraction unbound in data set [11] was 0.036.
Consider `CS(=O)(=O)CCCn1c(Cn2c(=O)n(C3CC3)c3ccncc32)cc2cc(Cl)ccc21`, for which the IC50 shift on CYP3A4 is 18. Besides, the metabolised at 0.25 h in [1] turned out to be 18%. Also, the half-maximal cytotoxic concentration (CC50) at 72 h in [2] was above 50 µM.
`COc1ccc(-n2c(=O)n(Cc3cc4cc(Cl)ccc4n3CCCC#N)c3cnccc32)cc1OC`: the Kp in [12] was found to be 2.5. Besides, the bioavailability in data set [13] turned out to be 26%; in data set [15], 32%. This compound also showed a CL in data set [14] of 50%. Also, the metabolised at 0.25 h came to 74% in data set [7], 19% in [1] and 56% in data set [18]. Besides, the clearance in data set [16] was 14.3 mL/min/kg; in data set [17], 31.7 mL/min/kg. Moreover, in [2], the CC50 at 72 h is above 50 µM. The Activity entry in data set [19] and in data set [20] was “Dose-dependent effect” each time. For the same compound, the EC50 is 0.18 µg/mL (≈ 0.359 µM) in [19] and 0.157 µg/mL (≈ 0.313 µM) in data set [20]. In addition, the fraction unbound in data set [11] worked out at 0.008.
Take `COc1ccc(-n2c(=O)n(Cc3cc4cc(Cl)ccc4n3CCCC#N)c3cnccc32)cc1`: in data set [12], the Kp was found to be 1.3. Besides, the bioavailability in data set [13] was 9%; in [15], 86%. The same compound displayed a CL in data set [14] of 90%. Moreover, the metabolised at 0.25 h in data set [7] was determined as 40%; in data set [1] it was 20%; in [18] it was 96%. The clearance was 24.8 mL/min/kg in [16] and 16.2 mL/min/kg in data set [17]. In data set [2], the CC50 at 72 h was above 50 µM. The Activity entry in data set [19] and in data set [20] was “Dose-dependent effect” in each case. Also, the EC50 in data set [19] was found to be 0.499 µg/mL (≈ 1.06 µM); in data set [20], 0.121 µg/mL (≈ 0.256 µM). For the same compound, the fraction unbound in data set [11] was 0.005.
`O=c1n(Cc2cc3cnccc3n2CCCC(F)(F)F)c2cnccc2n1C1CC1`: in data set [4], the clearance was 75 mL/min/kg. For the same compound, the Vd in [5] is 3.3 L/kg. For the same compound, the exposure (AUC) in [6] is 545 ng·h/mL. The same compound displayed a CL in data set [21] above 100%. The figures for the metabolised at 0.25 h in data set [7] and in [1] were 80% and 21%, respectively. In data set [8], the Kp is 11. The cytotoxic concentration (CC50) at 72 h in [2] was above 50 µM. In addition, the highest concentration (Cmax) in data set [9] came out at 532 ng/mL. The bioavailability in [10] amounted to 28%. The fraction unbound in data set [11] came to 0.472.
For `O=c1n(Cc2nc3nc(Cl)ccc3n2CCCC(F)(F)F)c2cnccc2n1C1CC1`, the clearance in [4] was 23.3 mL/min/kg. For the same compound, the Vd in data set [5] is 0.82 L/kg. The exposure (AUC) in data set [6] came to 3370 ng·h/mL. Moreover, the metabolised at 0.25 h is 80% in [7] and 0% in data set [1]. In data set [8], the Kp turned out to be 0.4. Further, the 50% cytotoxic concentration (CC50) at 72 h in data set [2] is above 50 µM. This compound had a Cmax in data set [9] of 1690 ng/mL. Moreover, the bioavailability in data set [10] was determined as 46%. In addition, in data set [11], the fraction unbound was 0.3.
Turning to `CS(=O)(=O)CCCn1c(Cn2c(=O)n(CC(F)(F)F)c3ccncc32)cc2cc(Cl)ccc21` [RILEMATOVIR], at Cytochrome P450 3A4, the TDI result is “Not Active”. Moreover, in [12], the Kp stood at 3.5. In [15], the bioavailability was 42%. Besides, the metabolised at 0.25 h is 60% in data set [7], 1% in [1] and 28% in [18]. Moreover, the results for the clearance in data set [16] and in data set [17] were 8.5 mL/min/kg and 65 mL/min/kg, respectively. Also, the 50% cytotoxic concentration (CC50) at 72 h in [2] is above 50 µM. For the same compound, the Activity entry in data set [19] and in data set [20] was “Dose-dependent effect” each time. Besides, the EC50 in [19] was found to be 0.075 µg/mL (≈ 0.15 µM); in data set [20], 0.081 µg/mL (≈ 0.162 µM). Also, the fraction unbound in data set [11] is 0.06.
